Measured values: patent US20250154105A1, “POLYCYCLIC COMPOUND AND USE THEREOF” (TYK MEDICINES, INC., priority 2021, published 2025)

Assays:
YAP-TEAD = YAP-TEAD inhibitor activity by Nano luciferase method (8xGTiiC-nLuc reporter in 293T cells); type: cell-based; conditions: Homo sapiens, HEK-293T, 48 hours incubation, read-out: Nano-luciferase detection (IC50)
Procedure, shortened: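 IC50 derived from nLuc reporter signal normalised to 0 nM wells, after 48 h, 37 °C compound exposure (1:3.16 series, highest 10,000 nM). Cells: 293T transfected with 8xGTiiC-nLuc/CMV-fLuc plasmid, plated at 2000 per well.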

[1] = tested on: human pleural mesothelioma cells NCI-H226; test: Cell anti-proliferation experiment (CCK8), NCI-H226; type: cell-based
Procedure, shortened: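 Viability was measured by CCK-8 (3 h, A450) after 3-day treatment with 0.15–333.33 nM compound in 0.1% DMSO medium. Curve-fitted IC50 was based on viability normalised to no-drug and cell-free controls.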

Structure (SMILES) | IC50 (YAP-TEAD) [nM] | IC50 [1] [nM]
Cn1cc2c(=O)n(-c3ccc(C(F)(F)F)cc3)c3ccc(NC(=O)/C=C/CN4CCOCC4)cc3c2n1 [Example T-178] | ≤ 1000 | ≤ 1000
CN(C)C/C=C/C(=O)Nc1ccc2c(c1)c1nn(C)cc1c(=O)n2-c1ccc(C(F)(F)F)cc1 [Example T-176] | ≤ 1000 | ≤ 1000
Cn1cc2c(=O)n(-c3ccc(C(F)(F)F)cc3)c3ccc(NC(=O)CCCCl)cc3c2n1 [Example T-173] | 1000 to 5000 | 1000 to 5000
C=CC(=O)Nc1ccc2c(c1)c1c(c(=O)n2-c2ccc(C(F)(F)F)cc2)CCC1 [Example T-424] | ≤ 1000 | ≤ 1000
C[C@H](NC(=O)c1ccc2c(c1)c1c(c(=O)n2-c2ccc(C(F)(F)F)nc2)CCCC1)c1ccccn1 [Example T-263] | ≤ 1000 | ≤ 1000
C[C@H](NC(=O)c1ccc2c(c1)c1cc(Cl)ccc1c(=O)n2-c1ccc(C(F)(F)F)cc1)c1ccccn1 [Example T-311] | ≤ 1000 | ≤ 1000
C[C@H](NC(=O)c1ccc2c(c1)-c1cscc1CN2C1CCC(C(F)(F)F)CC1)c1ccccn1 (some centres unmarked) [Example T-269] | ≤ 1000 | ≤ 1000
C[C@H](NC(=O)c1ccc2c(c1)C1CCCC1CN2c1ccc(C(F)(F)F)cc1)c1ccccc1 (some centres unmarked) [Example T-283] | 1000 to 5000 | 1000 to 5000
C[C@@H](NC(=O)c1ccc2c(c1)c1nn(C)cc1c(=O)n2-c1ccc(C(F)(F)F)cc1)c1ccc(F)cn1 [Example T-127] | 1000 to 5000 | 1000 to 5000
C[C@H](NC(=O)c1ccc2c(c1)c1cnncc1c(=O)n2-c1ccc(C(F)(F)F)cc1)c1ccccn1 [Example T-335] | ≤ 1000 | ≤ 1000
Cn1cc2c(=O)n(-c3ccc(C(F)(F)F)cc3)c3ccc(C(=O)NCc4ccccn4)cc3c2n1 [Example T-113] | ≤ 1000 | ≤ 1000
CNS(=O)(=O)c1ccc2c(c1)cc(C)c(=O)n2-c1ccc(C(F)(F)F)cc1 [Example T-421] | ≤ 1000 | ≤ 1000
CNS(=O)(=O)c1ccc2c(c1)c1nn(C)cc1c(=O)n2-c1ccc(C(F)(F)F)cc1 [Example T-31] | ≤ 1000 | ≤ 1000
CNS(=O)(=O)c1ccc2c(c1)c1nn(C)cc1c(=O)n2-c1ccccc1 [Example T-61] | ≤ 1000 | ≤ 1000
C[C@H](NC(=O)c1ccc2c(c1)c1cccc(C#N)c1c(=O)n2-c1ccc(C(F)(F)F)cc1)c1ccccn1 [Example T-321] | ≤ 1000 | ≤ 1000
Cc1cc(=O)n(-c2ccc(C(F)(F)F)cc2)c2ncc(C(=O)N[C@@H](C)c3ccccc3)cc12 [Example T-459] | ≤ 1000 | ≤ 1000
C[C@H](NC(=O)c1ccc2c(c1)c1nn(C)cc1c(=O)n2-c1ccc(C(F)(F)F)cc1)c1cc(Cl)ccn1 [Example T-128] | ≤ 1000 | ≤ 1000
Cc1occ2c(=O)n(-c3ccc(C(F)(F)F)cc3)c3ncc(C(=O)N[C@@H](C)c4ccccn4)cc3c12 [Example T-375] | ≤ 1000 | ≤ 1000
CNS(=O)(=O)c1ccc2c(c1)c1nn(C)cc1c(=O)n2-c1ccc(C)cc1 [Example T-82] | ≤ 1000 | ≤ 1000
CC(C)NC(=O)c1ccc2c(ccc(=O)n2-c2ccc(C(F)(F)F)cc2)c1 [Example T-3] | ≤ 1000 | ≤ 1000

Structure (SMILES) | IC50 (YAP-TEAD) [nM] | IC50 [1] [nM]
Cn1cc2c(=O)n(-c3ccc(C(F)(F)F)cc3)c3ccc(C(=O)NCc4ccncn4)cc3c2n1 [Example T-133] | 1000 to 5000 | 1000 to 5000
Cc1occ2c(=O)n(-c3ccc(C(F)(F)F)cc3)c3ccc(C(=O)N[C@@H](C)c4ccccn4)cc3c12 [Example T-288] | ≤ 1000 | ≤ 1000
C[C@H](NC(=O)c1ccc2c(c1)c1ncsc1c(=O)n2-c1ccc(C(F)(F)F)cc1)c1ccccn1 [Example T-330] | ≤ 1000 | ≤ 1000
O=C(O)c1ccc2c(c1)c(=O)ccn2-c1ccc(C(F)(F)F)cc1 [Example T-5] | ≤ 1000 | 1000 to 5000
C[C@H](NC(=O)c1cnc2c(c1)c1cnccc1c(=O)n2-c1ccc(C(F)(F)F)cc1)c1ccccn1 [Example T-406] | ≤ 1000 | ≤ 1000
C=C(C)C(=O)Nc1ccc2c(c1)c1nn(C)cc1c(=O)n2-c1ccc(C(F)(F)F)cc1 [Example T-236] | ≤ 1000 | ≤ 1000
N#CC1CN(C(=O)c2ccc3c(c2)c(=O)ccn3-c2ccc(C(F)(F)F)cc2)C1 [Example T-38] | 1000 to 5000 | 1000 to 5000
C[C@H](NC(=O)c1ccc2c(c1)c1nn(C)cc1c(=O)n2-c1ccc(C(F)(F)F)cc1)c1ccccc1 [Example T-138] | ≤ 1000 | ≤ 1000
C[C@H](NC(=O)c1ccc2c(c1)c1ccccc1c(=O)n2-c1ccc(C(F)(F)F)cn1)c1ccccn1 [Example T-248] | ≤ 1000 | ≤ 1000
C[C@H](NC(=O)c1ccc2c(c1)c1nn(C)cc1c(=O)n2-c1ccc(C(F)(F)F)cc1)c1ccc(Cl)cn1 [Example T-130] | 1000 to 5000 | 1000 to 5000
C[C@H](NC(=O)c1ccc2c(c1)c(=O)ccn2-c1ccc(C(F)(F)F)cc1)c1ccccn1 [Example T-17] | ≤ 1000 | 1000 to 5000
C[C@H](NC(=O)c1ccc2c(c1)c1ccnnc1c(=O)n2-c1ccc(C(F)(F)F)cc1)c1ccccn1 [Example T-336] | ≤ 1000 | ≤ 1000
C[C@H](NC(=O)c1ccc2c(c1)c1c(c(=O)n2-c2ccc(C(F)(F)F)cc2)CCC1(F)F)c1ccccn1 [Example T-293] | ≤ 1000 | ≤ 1000
Cc1cc(=O)n(-c2ccc(C(F)(F)F)cc2)c2ncc(C(=O)N[C@@H](C)c3ccccn3)cc12 [Example T-458] | ≤ 1000 | ≤ 1000
COC[C@H](C)NC(=O)c1ccc2c(c1)-c1ncn(C)c1CN2c1ccc(C(F)(F)F)cc1 [Example T-16] | ≤ 1000 | ≤ 1000
C[C@H](NC(=O)c1ccc2c(c1)c1cccc(F)c1c(=O)n2-c1ccc(C(F)(F)F)cc1)c1ccccn1 [Example T-261] | 1000 to 5000 | ≤ 1000
C[C@H](NC(=O)c1ccc2c(c1)c1c(c(=O)n2-c2ccc(C(F)(F)F)cc2)CN(C)C1)c1ccccn1 [Example T-287] | ≤ 1000 | ≤ 1000
CNS(=O)(=O)c1ccc2c(c1)-c1ncn(C)c1CN2Cc1ccc(C(F)(F)F)cc1 [Example T-49] | ≤ 1000 | ≤ 1000
COc1ccnc([C@H](C)NC(=O)c2ccc3c(c2)c2nn(C)cc2c(=O)n3-c2ccc(C(F)(F)F)cc2)c1 [Example T-143] | 1000 to 5000 | 1000 to 5000
CN(C)C(=O)Nc1ccc2c(c1)c1nn(C)cc1c(=O)n2-c1ccc(C(F)(F)F)cc1 [Example T-182] | ≤ 1000 | ≤ 1000

Structure (SMILES) | IC50 (YAP-TEAD) [nM] | IC50 [1] [nM]
C[C@H](NC(=O)c1cnc2c(c1)c1cscc1c(=O)n2-c1ccc(C(F)(F)F)nn1)c1ccccn1 [Example T-398] | 1000 to 5000 | 1000 to 5000
C[C@H](NC(=O)c1ccc2c(c1)c1c(c(=O)n2-c2ccc(C(F)(F)F)cc2)CN(Cc2ccccc2)C1)c1ccccn1 [Example T-251] | 1000 to 5000 | 1000 to 5000
Cn1cc2c(=O)n(-c3ccc(C(F)(F)F)cc3)c3ccc(NS(=O)(=O)c4ccc(F)cc4)cc3c2n1 [Example T-187] | ≤ 1000 | ≤ 1000
CNC(=O)c1ccc2c(c1)c1nn(C)cc1c(=O)n2-c1ccc(C(F)(F)F)cc1 [Example T-111] | ≤ 1000 | ≤ 1000
CC(=O)Nc1ccc2c(c1)c1nn(C)cc1c(=O)n2-c1ccc(C(F)(F)F)cc1 [Example T-175] | ≤ 1000 | ≤ 1000
C[C@H](NC(=O)c1cnc2c(c1)c1sccc1c(=O)n2-c1ccc(C(F)(F)F)cc1)c1ccccn1 [Example T-377] | ≤ 1000 | ≤ 1000
COCCOC(=O)Nc1ccc2c(c1)c1nn(C)cc1c(=O)n2-c1ccc(C(F)(F)F)cc1 [Example T-192] | ≤ 1000 | ≤ 1000
C[C@H](NC(=O)c1ccc2c(n1)c1c(Cl)scc1c(=O)n2-c1ccc(C(F)(F)F)cc1)c1ccccn1 [Example T-387] | ≤ 1000 | ≤ 1000
C[C@H](NC(=O)c1ccc2c(c1)-c1nn(C)cc1[C@H](C)N2c1ccc(C(F)(F)F)cc1)c1cccc(N)n1 [Example T-327] | ≤ 1000 | ≤ 1000
C[C@H](NC(=O)c1ccc2c(c1)c1csnc1c(=O)n2-c1ccc(C(F)(F)F)cc1)c1ccccn1 [Example T-328] | ≤ 1000 | ≤ 1000
C[C@H](NC(=O)c1ccc2c(c1)c1sccc1c(=O)n2-c1ccc(C(F)(F)F)cc1)c1cccc(N)n1 [Example T-429] | ≤ 1000 | ≤ 1000
C[C@H](NC(=O)c1cnc2c(c1)c1ccsc1c(=O)n2-c1ccc(C(F)(F)F)cc1)c1ccccn1 [Example T-378] | ≤ 1000 | ≤ 1000
C=CC(=O)Nc1ccc2c(c1)c1nn(C)cc1c(=O)n2-c1ccc(OC(F)(F)F)cc1 [Example T-232] | ≤ 1000 | ≤ 1000
O=C(O)c1ccc2c(ccc(=O)n2-c2ccc(C(F)(F)F)cc2)c1 [Example T-1] | 1000 to 5000 | 1000 to 5000
C[C@H](NC(=O)c1cnc2c(c1)c1cscc1c(=O)n2-c1ccc(C(F)(F)F)cc1)c1ccccn1 [Example T-246] | ≤ 1000 | ≤ 1000
C[C@H](NC(=O)c1ccc2c(c1)c1nn(C)cc1c(=O)n2-c1ccc(OC(F)(F)F)cc1)c1ccccc1 [Example T-230] | ≤ 1000 | ≤ 1000
CNc1cccc([C@H](C)NC(=O)c2ccc3c(c2)c2nn(C)cc2c(=O)n3-c2ccc(C(F)(F)F)cc2)n1 [Example T-149] | ≤ 1000 | ≤ 1000
O=C(c1ccc2c(ccc(=O)n2-c2ccc(C(F)(F)F)cc2)c1)N1CC(O)C1 [Example T-22] | 1000 to 5000 | 1000 to 5000
